Laboratory results published in patent US11124508B2 (priority 2017, dated 2021).

SMILES	melting point
Cc1c(Br)ccc2c(C3=NC(C)(C)C(F)(F)c4ccccc43)cnn12 [X.007, 1-(6-bromo-7-methyl-pyrazolo[1,5-a]pyridin-3-yl)-4,4-difluoro-3,3-dimethyl-isoquinoline]	180 to 182 °C
Cc1c(Cl)ccc2c(C3=NC(C)(C)C(F)(F)c4ccccc43)cnn12 [X.001, 1-(6-chloro-7-methyl-pyrazolo[1,5-a]pyridin-3-yl)-4,4-difluoro-3,3-dimethyl-isoquinoline]	166 to 168 °C
Cc1ccc2c(C3=NC(C)(C)C(F)(F)c4ccccc43)cnn2c1 [X.005, 4,4-difluoro-3,3-dimethyl-1-(6-methylpyrazolo[1,5-a]pyridin-3-yl)isoquinoline]	105 to 107 °C
Cc1ccc2c(C3=NC(C)(C)C(C)(C)c4c(F)cccc43)cnn2c1C [X.012, 1-(6,7-dimethylpyrazolo[1,5-a]pyridin-3-yl)-5-fluoro-3,3,4,4-tetramethyl-isoquinoline]	175 to 176 °C
CC1(C)N=C(c2cnn3cc(Br)ccc23)c2ccccc2C1(F)F [X.006, 1-(6-bromopyrazolo[1,5-a]pyridin-3-yl)-4,4-difluoro-3,3-dimethyl-isoquinoline]	127 to 129 °C

More lines, now with the values ahead:

melting point	SMILES
185 to 186 °C	Cc1ccn2c(C3=NC(C)(C)C(C)(C)c4c(F)cccc43)cnc2c1C [X.016, 1-(7,8-dimethylimidazo[1,2-a]pyridin-3-yl)-5-fluoro-3,3,4,4-tetramethyl-isoquinoline]
160 to 161 °C	Cc1ccc2c(C3=NC(C)(C)C(F)(F)c4ccccc43)cnn2c1C [X.011, 1-(6,7-dimethylpyrazolo[1,5-a]pyridin-3-yl)-4,4-difluoro-3,3-dimethyl-isoquinoline]
160 to 161 °C	Cc1cccn2c(C3=NC(C)(C)C(C)(C)c4c(F)cccc43)cnc12 [X.019, 5-fluoro-3,3,4,4-tetramethyl-1-(8-methylimidazo[1,2-a]pyridin-3-yl)isoquinoline]
159 to 161 °C	Cc1ccn2c(C3=NC(C)(C)C(F)(F)c4ccccc43)cnc2c1C [X.014, 1-(7,8-dimethylimidazo[1,2-a]pyridin-3-yl)-4,4-difluoro-3,3-dimethyl-isoquinoline]
113 to 118 °C	CC1(C)N=C(c2cnn3cc(Cl)ccc23)c2ccccc2C1(F)F [X.003, 1-(6-chloropyrazolo[1,5-a]pyridin-3-yl)-4,4-difluoro-3,3-dimethyl-isoquinoline]
134 to 136 °C	Cc1cccc2c(C3=NC(C)(C)C(C)(C)c4c(F)cccc43)cnn12 [X.013, 5-fluoro-3,3,4,4-tetramethyl-1-(7-methylpyrazolo[1,5-a]pyridin-3-yl)isoquinoline]
